# In the NIST ThermoML archive (doi:10.1016/j.jct.2012.03.017):
# “And” between values parts separate entries of the source, which are not always exact repeats. Identical values can stand only once. ± gives the expanded uncertainty stated by the source.
# Experiments:
# [1] = Crystal, Calculated from knudsen effusion weight loss
# [2] = molar enthalpy of vaporization or sublimation; conditions: 298.15 K; Crystal; drop calorimetry
smiles,measurement,setting,value
OC1c2ccccc2Oc2ccccc21 [9H-xanthen-9-ol],vapor or sublimation pressure,[1]; 333.18 K,6.91e-05 ± 2e-05 kPa and 5.67e-05 ± 2e-05 kPa and 6.28e-05 ± 2e-05 kPa
same,vapor or sublimation pressure,[1]; 335.14 K,8.54e-05 ± 2e-05 kPa and 8.17e-05 ± 2e-05 kPa and 7.79e-05 ± 2e-05 kPa
same,vapor or sublimation pressure,[1]; 337.08 K,0.0001045 ± 2e-05 kPa and 0.0001126 ± 2e-05 kPa and 0.0001038 ± 2e-05 kPa
same,vapor or sublimation pressure,[1]; 339.18 K,0.0001355 ± 2.1e-05 kPa and 0.0001321 ± 2.1e-05 kPa and 0.000152 ± 2.1e-05 kPa
same,vapor or sublimation pressure,[1]; 341.13 K,0.0001838 ± 2.1e-05 kPa and 0.0001813 ± 2.1e-05 kPa and 0.0001645 ± 2.1e-05 kPa
same,vapor or sublimation pressure,[1]; 343.08 K,0.0002256 ± 2.2e-05 kPa and 0.0002318 ± 2.2e-05 kPa and 0.0002156 ± 2.1e-05 kPa
same,vapor or sublimation pressure,[1]; 345.08 K,0.0002616 ± 2.2e-05 kPa and 0.0002749 ± 2.2e-05 kPa and 0.0002595 ± 2.2e-05 kPa
same,vapor or sublimation pressure,[1]; 347.14 K,0.0003355 ± 2.3e-05 kPa and 0.0003321 ± 2.3e-05 kPa and 0.0003104 ± 2.3e-05 kPa
same,vapor or sublimation pressure,[1]; 349.17 K,0.0004364 ± 2.5e-05 kPa and 0.0003742 ± 2.4e-05 kPa and 0.0003877 ± 2.4e-05 kPa
same,vapor or sublimation pressure,[1]; 351.07 K,0.0005411 ± 2.8e-05 kPa and 0.0005557 ± 2.8e-05 kPa and 0.0005348 ± 2.8e-05 kPa
same,vapor or sublimation pressure,[1]; 353.12 K,0.0006853 ± 3.1e-05 kPa and 0.0006411 ± 3e-05 kPa and 0.0006134 ± 3e-05 kPa
same,vapor or sublimation pressure,[1]; 355.18 K,0.0008786 ± 3.7e-05 kPa and 0.0007534 ± 3.3e-05 kPa and 0.0007633 ± 3.4e-05 kPa
NC(=O)C1c2ccccc2Oc2ccccc21 [9H-xanthene-9-carboxamide],vapor or sublimation pressure,[1]; 399.14 K,0.0001229 ± 2.1e-05 kPa and 0.0001189 ± 2e-05 kPa and 0.000116 ± 2e-05 kPa
same,vapor or sublimation pressure,[1]; 401.14 K,0.000154 ± 2.1e-05 kPa and 0.0001484 ± 2.1e-05 kPa and 0.000144 ± 2.1e-05 kPa
same,vapor or sublimation pressure,[1]; 403.16 K,0.0001893 ± 2.1e-05 kPa and 0.0001856 ± 2.1e-05 kPa and 0.0001767 ± 2.1e-05 kPa
same,vapor or sublimation pressure,[1]; 405.15 K,0.0002159 ± 2.1e-05 kPa and 0.0002174 ± 2.1e-05 kPa
same,vapor or sublimation pressure,[1]; 407.19 K,0.0002731 ± 2.2e-05 kPa and 0.0002662 ± 2.2e-05 kPa
same,vapor or sublimation pressure,[1]; 409.17 K,0.0003106 ± 2.3e-05 kPa and 0.0002981 ± 2.3e-05 kPa and 0.0003072 ± 2.3e-05 kPa
same,vapor or sublimation pressure,[1]; 411.15 K,0.0003968 ± 2.4e-05 kPa and 0.0003833 ± 2.4e-05 kPa
same,vapor or sublimation pressure,[1]; 413.19 K,0.0004758 ± 2.6e-05 kPa and 0.0004828 ± 2.6e-05 kPa and 0.0004614 ± 2.6e-05 kPa
same,vapor or sublimation pressure,[1]; 415.15 K,0.0005574 ± 2.8e-05 kPa and 0.0005463 ± 2.8e-05 kPa
same,vapor or sublimation pressure,[1]; 417.17 K,0.000649 ± 3e-05 kPa and 0.0006492 ± 3e-05 kPa
same,vapor or sublimation pressure,[1]; 419.18 K,0.0007769 ± 3.4e-05 kPa and 0.0008205 ± 3.5e-05 kPa
same,vapor or sublimation pressure,[1]; 421.2 K,0.0009516 ± 3.9e-05 kPa and 0.0009609 ± 3.9e-05 kPa
same,molar enthalpy,[2],31.1 ± 1 kcal/mol
O=C(O)C1c2ccccc2Oc2ccccc21 [9H-xanthene-9-carboxylic acid],vapor or sublimation pressure,[1]; 383.08 K,0.000119 ± 2e-05 kPa and 0.0001121 ± 2e-05 kPa and 0.0001132 ± 2e-05 kPa
same,vapor or sublimation pressure,[1]; 385.15 K,0.0001477 ± 2.1e-05 kPa and 0.0001432 ± 2.1e-05 kPa and 0.0001353 ± 2.1e-05 kPa
same,vapor or sublimation pressure,[1]; 387.25 K,0.0001726 ± 2.1e-05 kPa and 0.0001686 ± 2.1e-05 kPa and 0.0001619 ± 2.1e-05 kPa
same,vapor or sublimation pressure,[1]; 389.12 K,0.0002124 ± 2.1e-05 kPa and 0.0002049 ± 2.1e-05 kPa and 0.0002165 ± 2.1e-05 kPa
same,vapor or sublimation pressure,[1]; 391.13 K,0.0002584 ± 2.2e-05 kPa and 0.0002449 ± 2.2e-05 kPa
same,vapor or sublimation pressure,[1]; 393.14 K,0.0003154 ± 2.3e-05 kPa and 0.0003062 ± 2.3e-05 kPa
same,vapor or sublimation pressure,[1]; 395.13 K,0.0003811 ± 2.4e-05 kPa and 0.0003776 ± 2.4e-05 kPa and 0.0003653 ± 2.4e-05 kPa
same,vapor or sublimation pressure,[1]; 397.11 K,0.0004814 ± 2.6e-05 kPa and 0.0004632 ± 2.6e-05 kPa
same,vapor or sublimation pressure,[1]; 399.14 K,0.0005597 ± 2.8e-05 kPa and 0.0005447 ± 2.8e-05 kPa and 0.0005518 ± 2.8e-05 kPa
same,vapor or sublimation pressure,[1]; 401.13 K,0.0006834 ± 3.1e-05 kPa and 0.0006937 ± 3.2e-05 kPa and 0.0006737 ± 3.1e-05 kPa
same,vapor or sublimation pressure,[1]; 403.12 K,0.0008362 ± 3.6e-05 kPa and 0.0008293 ± 3.6e-05 kPa and 0.0007816 ± 3.4e-05 kPa
same,vapor or sublimation pressure,[1]; 405.15 K,0.0009639 ± 3.9e-05 kPa and 0.0009409 ± 3.9e-05 kPa
same,molar enthalpy,[2],30 ± 0.717 kcal/mol
